Patent publication US20130046025A1, “COMPOSITION WITH LOW SKIN IRRITATION FOR TRANSDERMAL DELIVERY OF TOLTERODINE” (SK Chemicals Co., Ltd., priority 2010, published 2013)

Test system: forearm skin of a test subject
Assay: Skin irritation test of patches (primary skin irritation index)
Assay type: in vivo
Conditions: for Effect on relief of skin irritation caused by tolterodine, result in words: conclusion from Table 4, essential oil in tolterodine patch
Procedure: Each of the patches produced in Production Examples 1 and 2 was cut to a size of 1 cm×1 cm. The specimen was attached to the forearm skin of a test subject and fixed with a medical tape to prevent detachment during the test period. After 24 hr, the medical tape and the patch were removed with care. After 1 hr, the primary skin irritation index of the patch for skin irritations including erythema and edema was determined with the help of an expert.
Skin irritation tests were conducted in the same manner as in Test Example 1.

Structure (SMILES)	Skin irritation (erythema, edema), result in words (conclusion from Table 2)	Effect on relief of skin irritation caused by tolterodine, result in words
Cc1ccc(O)c([C@H](CCN(C(C)C)C(C)C)c2ccccc2)c1 [tolterodine, 2-[(1R)-3-(diisopropylamino)-1-phenylpropyl)-4-methylphenol]	causing skin irritations	
CC(C)=CCC[C@](C)(O)C1CC=C(C)CC1 (stereo partly drawn) [bisabolol]		outstanding effects on skin irritation relief
C=CCc1ccc(O)c(OC)c1 [eugenol]		outstanding effects on skin irritation relief
